Measured values taken from US8221992B2, “Assays for determining compounds which modulate TRAM phosphorylation” (Opsona Therapeutics Limited, priority 2005, dated 2012).
Entries after “also recorded” stand apart in the source; their conditions may differ.

Assays:
[1] = tested on: TRAM; assay: Immunoblot of PKCε expressing MEF lysates with phospho-specific (Serine 16) TRAM antibody; format: cell-based; settings: stimulation for 30 minutes (LPS 15 and 30 minutes)
Source text: Fabgennix (Texas, USA), using a synthetic peptide corresponding to amino acids 7 to 21 of TRAM (KIN SCP LSL SWG KRH) with a phosphoserine incorporated instead of the serine at amino acid 16, generated and purified a phospho-specific antibody towards TRAM phosphorylated on Serine 16. The validity of the antibody was confirmed when the band predicted to the phosphorylated TRAM was not present in samples taken from TRAM-deficient MEFs (data not shown).
The phosphorylation occurred earlier in this cell type than the THP1 cells as the effect was waning by 45 minutes (lane 11) and was not evident at 60 minutes (lane 12). Levels of total TRAM were not altered in the lysates over the time course (FIG. 4c, second panel). Importantly no band was detected in lysates generated from PKCε^−/− MEFs (FIG. 4c, top panel, lane 1-6) and no bands were detected in TRAM-deficient cells attesting to the specificity of the antibody (data not shown). Finally treatment of PKCε expressing MEFs with the TLR2 ligand MALP2 or the TLR3 ligand polyI:C for 30 minutes had no effect (FIG. 4d).

[2] = tested on: GST-TRAM; assay: Kinase assay: GST-TRAM pulldown with THP1 lysates, [γ32P] ATP; format: biochemical; settings: THP1 cells treated with the stimulus before lysis
Protocol: Kinase assay: THP1 cells were seeded at 2×10^5 cells/ml in a T175 flask (Sarstedt) and incubated overnight at 37° C. The following day 30 ml of cells were treated with and without LPS in 50 ml falcon tubes (Sarstedt) for 1 hour. The cells were collected by centrifugation, washed once in PBS and lysed in 1 ml buffer (10% glycerol (v/v), 50 mM NaF, 20 mM Tris-Cl pH 8.0, 2 mM EDTA, 137 mM NaCl, 1% NP-40, 1 mM PMSF, 10 μg/ml leupeptin, 1 mM Na3VO4) for 10 minutes. The cell debris was centrifuged for 10 min at 13,000 rpm and the supernatant was removed to a fresh tube for use in the kinase assay. 50 μl of the purified GST-TRAM on the Glutathione beads was placed in an eppendorf tube and the appropriate lysate was added to the tube and incubated for 2 hours at 4° C. The beads were spun down at 2,000 rpm for 5 min and then washed three times in kinase buffer (20 mM HEPES, pH 7.5, 10 mM MgAc, 0.03% Trition, 100 μg/ml phosphotidylserine, 20 mM β-glycerol phosphate, 0.01% (w/v) leupeptin and 100 μM Na3VO4). These beads were then resuspended in 30 μl kinase buffer containing 20 μM cold ATP and 5 μCi [γ^32P] […]
TRAM is phosphorylated upon LPS stimulation: TRAM is myristoylated, and in resting cells is located in the membrane (unpublished data). […] The samples were then run on a 10% SDS-PAGE gel, transferred onto nitrocellulose and the incorporated radioactivity was measured using X-ray film. […]

| Substance | TRAM phosphorylation on serine 16 in PKCε expressing MEFs [1] | phosphorylation of GST-TRAM by lysates of stimulated THP1 cells [2] |
| --- | --- | --- |
| PolyI:C | had no effect | phosphorylation of TRAM does not occur; also recorded: This phosphorylation did not occur |
| MALP2 | had no effect | – |
